# Test results published in article PMC9440176, “Novel benzylidene benzofuranone analogues as potential anticancer agents: design, synthesis and in vitro evaluation based on CDK2 inhibition assays” (3 Biotech, 2022).
# Assays:
# HCT116 cells = experiment: Comet assay (DNA damage); type: cell-based, Human; settings: 24 h, HCT-116
# Experimental: To assess the genotoxicity effect of newly synthesized aurones, comet assay was performed on HCT -116 cell lines.
# The agarose-coated glass slides were prepared according to the standard procedure (Tice et al. [2000]).
# Compound selected—NISOA4.
# Cell line used were- HCT116 cells (Human colorectal cancer cell lines).
# HCT -116 (1 × 10^6) cells were treated with two different concentrations, 12.5, 25 μM of NISOA4 for 24 h.
# The cells were centrifuged at 2000 rpm at 4 °C for 5 min followed by washing with PBS. Further, it was air dried and pellet was dissolved once again in PBS.
# After keeping slides at 4 °C for 2 h, slides were removed from the lysis buffer and were placed side by side on a horizontal gel box near one end, sliding them as close together as possible.
# The slides were placed on ice for 10 min and submerged in lysis buffer (2.5% NaCl, 100 mM EDTA, 10 mM Tris, 10% DMSO and 1% Troton X-100) at pH 10 at 4 °C for more than 1 h.
# In the next step, the buffer reservoir was filled with freshly made electrophoresis buffer (pH > 13) until the liquid level was enough to cover the slides. […]
# Slides were stained with 80 µL 1× Ethidium Bromide and left aside for 10 min followed by washing with PBS to remove the excess of stain. The slides were then scored immediately after washing.
# The visualization of DNA damage was observed based on EtBr-staining technique using a 40× objective on a fluorescent microscope. The assessment of both qualitative as well as quantitative extent of DNA damage in the cells were carried out by measuring the length of DNA migration and the percentage of the migrated DNA using ImageJ software with open comet plug-in. Generally, 50 to 100 randomly selected cells are analysed per sample. Finally, the total tail amount was calculated. The final results are assessed by using the following parameters: (i)amount of migration per cell (ii) the number of cells with increased migration (iii) the extent of migration among damaged cells and (iv) cell viability (Końca et al. [2003]).
# [1] = DPPH. free radical scavenging assay
# Experimental: DPPH. assay was performed using 96-well plate by serial dilution method. The dilution of methanolic stock solution of the test compounds and standard anti-oxidants was carried out to obtain concentration in the range of 3.9–1000 µM. Quercetin and ascorbic acid were used as standards. To a 100 μL of this solution, 100 μL of 200 µM DPPH^. in methanolic solution was added. The experiment was done in triplicate and the plate was then incubated for 30 min in the dark and later the absorbance was measured at 517 nm using Elisa reader. The percentage DPPH^. Scavenging was calculated using the formula, (Control Absorbance–Test Absorbance)*100/(Control Absorbance). The anti-oxidant activity of the test compounds was expressed in terms of concentration required for 50 percentage inhibition (IC50) (Collins [2005]).
# HCT 116 cell lines = experiment: Cell cycle analysis (PI, FACS); type: cell-based, Human; settings: 24 h
# Experimental: The cell cycle analysis was followed where 1 × 10^6 cells were seeded and cultured for 24 h in a 6-well plate containing 2 ml of the media. Cells were then treated with desired concentrations of the given samples that were prepared in media and further incubated for another 24 h. Cells were then harvested and centrifuged at 2000 rpm for 5 min at room temperature and the supernatant was discarded carefully retaining the cell pellet. Cell pellet was then washed by resuspending in 2 ml of 1XPBS. The washing was repeated another time under the same conditions. Further, the supernatant was discarded retaining the pellet. Cells were then fixed by resuspending in 300 µL of Sheath fluid followed by the addition of 1 ml of chilled 70% ethanol drop by drop gently with continuous shaking and one more mL of the same at once. The cells were then stored at 4 °C overnight. Post fixing, the cells were centrifuged at 2000 rpm for 5 min washed twice with 2 ml of cold 1XPBS and suspended in 450 µL of sheath fluid containing 0.05 mg/ml PI (Propidium iodide), 0.05 mg/ml RNase A and incubated for 15 min in the dark (Kasibhatla et al. [2006]).The percentage of cells in various stages of cell cycle both in the treated as well as un-treated populations was determined using FACS Caliber (BD Biosciences, San Jose, CA).
smiles,measurement,setting,value
COc1ccc(/C=C2\Oc3c(c(OC)cc(OC)c3C3=CCN(C(C)C)CC3)C2=O)cc1OC [NISOA4],Olive moments (Mean ± SD),HCT116 cells; 12.5 µM,25.38
same,Olive moments (Mean ± SD),"HCT116 cells; 12.5 µM, listed as NISOA04",25.384 ± 24.333
same,Olive moments (Mean ± SD),"HCT116 cells; 25 µM, listed as NISOA04",73.582 ± 97.498
same,IC50,[1],159 ± 0.45 µM
same,percentage cell population GO/G1 phase,HCT 116 cell lines; high concentration (25),57.97%
same,percentage cell population G2/M phase,HCT 116 cell lines; low concentration (12.5),17.30%
same,percentage cell population GO/G1 phase,HCT 116 cell lines; low concentration (12.5),70.84%
same,percentage cell population S phase,HCT 116 cell lines; low concentration (12.5),10.61%
